Earlier results as cited in US20080003592A1, “Method for conducting pharmacogenomics-based studies” (priority 2003, published 2008).
Counter-ions that a name gives are not always drawn.

Tests used:
[1] = depending on the regimen
[2] = advanced colorectal cancer

Row | SMILES | patients suffering serious gastrointestinal or hematopoietic toxicity [1] | patients with an objective response to the drug ([2]; standard therapy) | patients with a complete response (complete tumor disappearance) ([2]; of the patients with an objective response) | patients minimally improved (Alzheimer's patients receiving Cognex, controls about 33%) | patients showing no change or minimal worsening of their disease (patients receiving Cognex for Alzheimer's disease, controls about 68%) | patients much improved (patients receiving Cognex, controls about 1%)
1 | O=c1[nH]cc(F)c(=O)[nH]1 [5-fluorouracil] | 20-30% | 20-40% | 1-5% | – | – | –
2 | Nc1c2c(nc3ccccc13)CCCC2 [Cognex, tacrine hydrochloride] | – | – | – | About 58% | about 45% | about 2%
